Source: ChEMBL document CHEMBL4507311, “Data for DCP probe A-1155463” (2021)

How the values were obtained:
Settings in all cases: Compound concentration 1000.0 nM
[1] = target: Mitogen-activated protein kinase kinase kinase 6 (Homo sapiens) (UniProt O95382)
[2] = target: Calcium/calmodulin-dependent protein kinase kinase 1 (Homo sapiens) (UniProt Q8N5S9)
[3] = target: Dual specificity protein kinase CLK2 (Homo sapiens) (UniProt P49760)
[4] = target: 1-phosphatidylinositol 3-phosphate 5-kinase (Homo sapiens) (UniProt Q9Y2I7)
[5] = target: Phosphatidylinositol 3-kinase catalytic subunit type 3 (Homo sapiens) (UniProt Q8NEB9)
Chain of Phosphatidylinositol 3-kinase catalytic subunit type 3 (Homo sapiens) (Q8NEB9 whole entry): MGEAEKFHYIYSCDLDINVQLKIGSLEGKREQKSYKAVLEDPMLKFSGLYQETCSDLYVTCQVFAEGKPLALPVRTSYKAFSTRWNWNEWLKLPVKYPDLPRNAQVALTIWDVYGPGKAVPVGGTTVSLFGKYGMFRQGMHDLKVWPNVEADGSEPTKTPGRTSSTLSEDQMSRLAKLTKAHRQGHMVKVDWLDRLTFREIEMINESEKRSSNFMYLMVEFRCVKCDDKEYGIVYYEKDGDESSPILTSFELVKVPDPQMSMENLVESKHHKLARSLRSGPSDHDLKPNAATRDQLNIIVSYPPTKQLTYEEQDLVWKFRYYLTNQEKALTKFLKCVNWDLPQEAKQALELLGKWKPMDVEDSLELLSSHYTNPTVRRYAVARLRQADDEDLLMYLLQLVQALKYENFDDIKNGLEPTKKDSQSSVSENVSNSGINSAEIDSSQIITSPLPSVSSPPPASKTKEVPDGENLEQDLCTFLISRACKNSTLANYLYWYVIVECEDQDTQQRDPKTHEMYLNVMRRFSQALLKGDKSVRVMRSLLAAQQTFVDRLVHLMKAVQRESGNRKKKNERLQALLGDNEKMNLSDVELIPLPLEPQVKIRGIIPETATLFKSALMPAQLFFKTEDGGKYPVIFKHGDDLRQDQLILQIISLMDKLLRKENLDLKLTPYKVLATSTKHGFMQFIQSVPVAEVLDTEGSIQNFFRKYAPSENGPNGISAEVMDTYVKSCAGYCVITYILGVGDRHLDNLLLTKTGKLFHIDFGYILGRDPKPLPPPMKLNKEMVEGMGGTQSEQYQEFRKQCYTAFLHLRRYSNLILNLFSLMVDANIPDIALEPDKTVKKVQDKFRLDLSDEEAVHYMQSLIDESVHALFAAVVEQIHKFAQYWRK

Measured: residual activity

Chain of Dual specificity protein kinase CLK2 (Homo sapiens) (P49760 whole entry, looked up): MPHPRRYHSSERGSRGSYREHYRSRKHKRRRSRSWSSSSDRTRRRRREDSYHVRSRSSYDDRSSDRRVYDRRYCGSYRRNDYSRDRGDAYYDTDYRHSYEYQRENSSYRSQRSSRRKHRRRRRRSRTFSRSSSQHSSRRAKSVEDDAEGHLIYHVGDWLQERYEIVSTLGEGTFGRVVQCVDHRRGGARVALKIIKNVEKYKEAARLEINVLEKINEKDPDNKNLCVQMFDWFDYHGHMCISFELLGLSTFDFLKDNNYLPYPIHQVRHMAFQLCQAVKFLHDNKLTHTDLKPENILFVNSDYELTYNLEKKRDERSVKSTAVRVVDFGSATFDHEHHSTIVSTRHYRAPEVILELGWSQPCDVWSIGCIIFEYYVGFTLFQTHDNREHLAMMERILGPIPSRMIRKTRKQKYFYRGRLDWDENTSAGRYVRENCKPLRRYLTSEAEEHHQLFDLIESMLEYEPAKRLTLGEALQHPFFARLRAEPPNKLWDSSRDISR
Chain of Mitogen-activated protein kinase kinase kinase 6 (Homo sapiens) (O95382 whole entry): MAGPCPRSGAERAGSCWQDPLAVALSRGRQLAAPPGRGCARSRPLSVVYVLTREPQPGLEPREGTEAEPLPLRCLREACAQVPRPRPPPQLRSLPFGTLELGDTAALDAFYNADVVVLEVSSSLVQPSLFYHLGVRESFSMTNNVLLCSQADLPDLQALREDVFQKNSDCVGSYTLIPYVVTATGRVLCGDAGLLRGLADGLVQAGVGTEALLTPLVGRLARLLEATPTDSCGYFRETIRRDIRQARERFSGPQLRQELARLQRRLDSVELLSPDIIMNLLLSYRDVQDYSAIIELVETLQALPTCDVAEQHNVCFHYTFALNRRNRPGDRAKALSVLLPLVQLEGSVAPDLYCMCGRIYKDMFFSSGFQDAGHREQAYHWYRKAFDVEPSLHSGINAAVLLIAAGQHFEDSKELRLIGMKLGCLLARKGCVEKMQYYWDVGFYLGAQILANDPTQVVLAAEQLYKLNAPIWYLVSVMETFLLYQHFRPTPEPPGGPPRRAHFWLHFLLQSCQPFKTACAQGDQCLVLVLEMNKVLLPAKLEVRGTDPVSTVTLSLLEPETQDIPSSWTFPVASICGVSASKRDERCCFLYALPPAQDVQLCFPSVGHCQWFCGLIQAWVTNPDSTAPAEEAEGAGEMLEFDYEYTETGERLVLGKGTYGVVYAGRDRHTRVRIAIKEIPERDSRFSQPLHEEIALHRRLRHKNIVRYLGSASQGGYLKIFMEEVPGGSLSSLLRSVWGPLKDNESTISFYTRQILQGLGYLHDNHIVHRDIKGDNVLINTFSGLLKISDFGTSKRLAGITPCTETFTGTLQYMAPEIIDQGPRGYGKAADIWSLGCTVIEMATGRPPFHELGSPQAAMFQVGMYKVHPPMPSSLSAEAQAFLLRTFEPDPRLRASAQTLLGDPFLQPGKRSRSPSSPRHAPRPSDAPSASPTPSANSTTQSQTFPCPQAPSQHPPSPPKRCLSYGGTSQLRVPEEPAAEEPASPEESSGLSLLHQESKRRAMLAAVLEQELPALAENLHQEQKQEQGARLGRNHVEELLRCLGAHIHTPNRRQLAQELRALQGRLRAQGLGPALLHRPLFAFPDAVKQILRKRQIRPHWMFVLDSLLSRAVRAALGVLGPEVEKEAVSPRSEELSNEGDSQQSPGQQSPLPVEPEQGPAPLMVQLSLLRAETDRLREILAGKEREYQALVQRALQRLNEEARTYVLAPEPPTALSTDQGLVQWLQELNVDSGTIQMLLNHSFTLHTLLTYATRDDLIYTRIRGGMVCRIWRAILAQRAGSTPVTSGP
Chain of Calcium/calmodulin-dependent protein kinase kinase 1 (Homo sapiens) (Q8N5S9 whole entry, looked up): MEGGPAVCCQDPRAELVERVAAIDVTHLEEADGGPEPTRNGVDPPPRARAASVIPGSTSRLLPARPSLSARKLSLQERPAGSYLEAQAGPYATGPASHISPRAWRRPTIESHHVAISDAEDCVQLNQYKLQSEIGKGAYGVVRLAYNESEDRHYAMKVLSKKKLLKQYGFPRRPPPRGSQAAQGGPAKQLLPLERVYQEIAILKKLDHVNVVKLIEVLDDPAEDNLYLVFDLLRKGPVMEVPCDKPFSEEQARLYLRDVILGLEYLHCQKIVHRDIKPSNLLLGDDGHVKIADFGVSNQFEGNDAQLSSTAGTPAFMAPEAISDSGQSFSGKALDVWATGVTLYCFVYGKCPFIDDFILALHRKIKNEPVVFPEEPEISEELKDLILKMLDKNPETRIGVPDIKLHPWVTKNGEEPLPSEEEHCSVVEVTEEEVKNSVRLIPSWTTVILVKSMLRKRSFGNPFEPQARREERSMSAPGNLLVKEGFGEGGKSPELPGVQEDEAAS

CN(C)CC#Cc1ccc(OCCCc2sc(N3CCc4cccc(C(=O)Nc5nc6ccccc6s5)c4C3)nc2C(=O)O)c(F)c1 [A-1155463]
inactive: [1] 82% | [2] 87% | [3] 83% | [4] 100% | [5] 100%
